Measurements: patent US20190030018A1 (Celgene Corporation, priority 2017, published 2019)
Read-outs that look alike come from different tables or passages of the source.

How the values were obtained:
Experiment in all cases: In vitro combination studies, CellTitre-Glo cell viability
HL-60 = test system: HL-60
OCT-AML-3 = test system: OCT-AML-3
OCI-AML-2 = test system: OCI-AML-2
KG-1 = test system: KG-1
NOMO-1 = test system: NOMO-1
ML-2 = test system: ML-2
MOLM-13 = test system: MOLM-13
F-36-P = test system: F-36-P
HNT-34 = test system: HNT-34
MV-4-11 = test system: MV-4-11
[1] = HL-60, in combination with Compound 1
[2] = OCI-AML-3, in combination with Compound 1
[3] = OCI-AML-2, in combination with Compound 1
[4] = KG-1, in combination with Compound 1
[5] = NOMO-1, in combination with Compound 1
[6] = ML-2, in combination with Compound 1
[7] = MOLM-13, in combination with Compound 1
[8] = F-36-P, in combination with Compound 1
[9] = HNT-34, in combination with Compound 1
[10] = MV-4-11, in combination with Compound 1

Row | SMILES | Synergy analysis for combinations with Compound 1 (HL-60; [1]) | Synergy analysis for combinations with Compound 1 (OCT-AML-3; [2]) | Synergy analysis for combinations with Compound 1 (OCI-AML-2; [3]) | Synergy analysis for combinations with Compound 1 (KG-1; [4]) | Synergy analysis for combinations with Compound 1 (NOMO-1; [5]) | Synergy analysis for combinations with Compound 1 (ML-2; [6]) | Synergy analysis for combinations with Compound 1 (MOLM-13; [7]) | Synergy analysis for combinations with Compound 1 (F-36-P; [8]) | Synergy analysis for combinations with Compound 1 (HNT-34; [9]) | Synergy analysis for combinations with Compound 1 (MV-4-11; [10]) | Synergy analysis for combinations with Compound 1 (HL-60) | Synergy analysis for combinations with Compound 1 (OCT-AML-3) | Synergy analysis for combinations with Compound 1 (OCI-AML-2) | Synergy analysis for combinations with Compound 1 (KG-1) | Synergy analysis for combinations with Compound 1 (NOMO-1) | Synergy analysis for combinations with Compound 1 (ML-2) | Synergy analysis for combinations with Compound 1 (MOLM-13) | Synergy analysis for combinations with Compound 1 (F-36-P) | Synergy analysis for combinations with Compound 1 (HNT-34) | Synergy analysis for combinations with Compound 1 (MV-4-11)
1 | CC(C)n1nc(-c2ccc3oc(N)nc3c2)c2c(N)ncnc21 [MLN-0128] | No | No | Yes | No | No | No | Yes | Yes | No | No |  |  |  |  |  |  |  |  |  | 
2 | O=C(/C=C/c1ccccc1)NC(NC(=S)Nc1cccc2cccnc12)C(Cl)(Cl)Cl (stereo not shown) [Salubrinol] | No | No | No | No | No | No | No | No | No | No |  |  |  |  |  |  |  |  |  | 
3 | CC(C)C[C@H](NC(=O)CNC(=O)c1cc(Cl)ccc1Cl)B(O)O [Ixazomib] | No | No | No | No | No | No | No | No | No | No |  |  |  |  |  |  |  |  |  | 
4 | CCN1C(=O)CNc2ncc(-c3ccc(-c4nc[nH]n4)nc3C)nc21 [CC-115, 1-ethyl-7-(2-methyl-6-(1H-1,2,4-triazol-3-yl)pyridin-3-yl)-3,4-dihydropyrazino[2,3-b]pyrazin-2(1H)-one, reference compound] | No | Yes | Yes | No | Yes | Yes | Yes | Yes | Yes | Yes |  |  |  |  |  |  |  |  |  | 
5 | C[C@@]12OC(=O)[C@]1([C@@H](O)[C@@H]1C=CCCC1)NC(=O)[C@@H]2CCCl [NPI-0052] |  |  |  |  |  |  |  |  |  |  | No | No | No | No | No | No | No | No | No | No
6 | CO[C@H]1/C=C\C=C(/C)C(=O)NC2=CC(=O)C(NCCN(C)C)=C(C[C@@H](C)C[C@H](OC)[C@H](O)[C@@H](C)/C=C(\C)[C@@H]1OC(N)=O)C2=O [Alvespimycin] | No | No | Yes | No | No | No | No | No | No | Yes |  |  |  |  |  |  |  |  |  | 
7 | CC(C)C[C@H](NC(=O)[C@H](CCc1ccccc1)NC(=O)CN1CCOCC1)C(=O)N[C@@H](Cc1ccccc1)C(=O)N[C@@H](CC(C)C)C(=O)[C@@]1(C)CO1 [Carfilzomib] | No | No | No | No | No | No | No | No | No | No |  |  |  |  |  |  |  |  |  | 
